The target in test [1] is T1, human Kv1.3 (CHO) (Homo sapiens, UniProt P22001).
T1 construct: expressed in transfected cells
Nature of the test: cell-based.

Test [2] has as its target T2, human Kv1.1 (HEK293) (Homo sapiens, UniProt Q09470).
T2 construct: expressed in transfected cells; host or cells: HEK293
Nature of the test: cell-based.

Bridge positions count the residues as written; N and C are the ends. Square brackets hold non-standard residues; d marks the D form. Peptide text beside a SMILES is read from it. 1Nal = N[C@@H](Cc1cccc2ccccc12)C(=O)O

T1 sequence (P22001 whole entry): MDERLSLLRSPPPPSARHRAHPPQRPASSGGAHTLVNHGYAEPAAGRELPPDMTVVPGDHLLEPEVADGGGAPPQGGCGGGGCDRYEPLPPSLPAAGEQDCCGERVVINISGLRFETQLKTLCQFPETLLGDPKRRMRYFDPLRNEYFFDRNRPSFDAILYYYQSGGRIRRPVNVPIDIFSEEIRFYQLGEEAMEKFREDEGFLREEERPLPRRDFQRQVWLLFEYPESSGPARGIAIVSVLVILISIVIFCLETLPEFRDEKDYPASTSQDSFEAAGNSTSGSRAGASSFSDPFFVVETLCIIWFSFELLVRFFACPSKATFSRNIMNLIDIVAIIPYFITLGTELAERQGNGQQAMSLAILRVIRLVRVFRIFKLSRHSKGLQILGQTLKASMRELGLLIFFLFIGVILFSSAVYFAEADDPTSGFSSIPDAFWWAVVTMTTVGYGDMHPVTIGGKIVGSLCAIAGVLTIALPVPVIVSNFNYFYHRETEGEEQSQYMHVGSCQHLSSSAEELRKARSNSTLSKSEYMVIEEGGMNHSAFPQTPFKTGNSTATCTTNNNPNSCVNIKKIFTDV
T2 sequence (Q09470 whole entry): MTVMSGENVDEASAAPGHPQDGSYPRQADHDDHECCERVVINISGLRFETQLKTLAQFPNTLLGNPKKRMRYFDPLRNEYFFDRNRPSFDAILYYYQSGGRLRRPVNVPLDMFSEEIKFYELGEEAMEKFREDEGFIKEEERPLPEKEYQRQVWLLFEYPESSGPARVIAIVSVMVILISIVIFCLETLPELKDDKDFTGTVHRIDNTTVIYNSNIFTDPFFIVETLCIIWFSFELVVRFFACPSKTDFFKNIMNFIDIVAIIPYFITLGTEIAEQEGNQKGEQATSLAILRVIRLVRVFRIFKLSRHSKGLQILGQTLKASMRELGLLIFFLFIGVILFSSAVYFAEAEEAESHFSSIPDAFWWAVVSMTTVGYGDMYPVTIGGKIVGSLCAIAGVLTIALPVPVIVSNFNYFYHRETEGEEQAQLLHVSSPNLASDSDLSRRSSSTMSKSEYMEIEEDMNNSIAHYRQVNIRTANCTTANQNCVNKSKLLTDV

Broadly, the IC50 is the concentration needed to halve the response being measured. The low end stands for inhibition by little substance, the high end for a need for much substance. Take `CC[C@H](C)[C@@H]1NC(=O)[C@H](CCCCN)NC(=O)[C@@H](NC(=O)[C@H](CCCCN)NC(=O)[C@@H](NC(=O)[C@H](CC(N)=O)NC(=O)[C@@H](NC(=O)[C@@H](NC(=O)[C@@H](NC(=O)CN)C(C)C)[C@@H](C)CC)[C@@H](C)CC)C(C)C)CSSC[C@@H]2NC(=O)[C@H](CCCCN)NC(=O)CNC(=O)[C@H](Cc3ccccc3)NC(=O)[C@H](CCCNC(=N)N)NC(=O)[C@H](CCSC)NC(=O)CNC(=O)[C@H](C)NC(=O)[C@H](Cc3cccc4ccccc34)NC(=O)[C@H](CCCCN)NC(=O)[C@@H]3CSSC[C@@H](C(=O)N[C@H](C(=O)N4CCC[C@H]4C(=O)N[C@@H](CCCCN)C(=O)O)[C@@H](C)O)NC(=O)[C@H](Cc4c[nH]cn4)NC(=O)[C@H](CSSC[C@H](NC(=O)[C@H](CCC(N)=O)NC(=O)[C@H](CCCNC(=N)N)NC(=O)[C@H](CO)NC1=O)C(=O)N[C@@H](CC(C)C)C(=O)N[C@@H](CCC(=O)O)C(=O)N1CCC[C@H]1C(=O)N3)NC(=O)[C@H](CCCCN)NC(=O)CNC(=O)[C@H](CC(N)=O)NC(=O)[C@H](CCSC)NC2=O` [K20Nal] (H-GVIINVKCKISRQCLEPCK[1Nal]AGMRFGKCMNGKCHCTPK-OH; disulfide 8-28, 14-33, 18-35): the IC50 is 0.0135 nM in test [1] and less than 1.52 pM in test [2].
In the case of `CC[C@H](C)[C@@H]1NC(=O)[C@H](CCCCN)NC(=O)[C@@H](NC(=O)[C@H](CCCCN)NC(=O)[C@@H](NC(=O)[C@H](CC(N)=O)NC(=O)[C@@H](NC(=O)[C@@H](NC(=O)[C@@H](NC(=O)CN)C(C)C)[C@@H](C)CC)[C@@H](C)CC)C(C)C)CSSC[C@@H]2NC(=O)[C@H](CCCCN)NC(=O)CNC(=O)[C@H](Cc3ccccc3)NC(=O)[C@H](CCCNC(=N)N)NC(=O)[C@H](CCSC)NC(=O)CNC(=O)[C@H](C)NC(=O)[C@H](CCCCN)NC(=O)[C@H](CCCCN)NC(=O)[C@@H]3CSSC[C@@H](C(=O)N[C@H](C(=O)N4CCC[C@H]4C(=O)N[C@@H](CCCCN)C(=O)O)[C@@H](C)O)NC(=O)[C@H](Cc4c[nH]cn4)NC(=O)[C@H](CSSC[C@H](NC(=O)[C@H](CCC(N)=O)NC(=O)[C@H](CCCNC(=N)N)NC(=O)[C@H](CO)NC1=O)C(=O)N[C@@H](CC(C)C)C(=O)N[C@@H](CCC(=O)O)C(=O)N1CCC[C@H]1C(=O)N3)NC(=O)[C@H](CCCCN)NC(=O)CNC(=O)[C@H](CC(N)=O)NC(=O)[C@H](Cc1cccc3ccccc13)NC2=O` [M29Nal] (H-GVIINVKCKISRQCLEPCKKAGMRFGKC[1Nal]NGKCHCTPK-OH; disulfide 8-28, 14-33, 18-35), the IC50 in test [1] was 0.0935 nM; in test [2], 46.9 pM.
The matching figures for `CC[C@H](C)[C@@H]1NC(=O)[C@H](CCCCN)NC(=O)[C@@H](NC(=O)[C@H](CCCCN)NC(=O)[C@H](CCCNC(=N)N)NC(=O)[C@H](CC(N)=O)NC(=O)[C@@H](NC(=O)[C@@H](NC(=O)[C@@H](NC(=O)CN)C(C)C)[C@@H](C)CC)[C@@H](C)CC)CSSC[C@@H]2NC(=O)[C@H](CCCCN)NC(=O)CNC(=O)[C@H](Cc3ccccc3)NC(=O)[C@H](CCCNC(=N)N)NC(=O)[C@H](CCSC)NC(=O)CNC(=O)[C@H](C)NC(=O)[C@H](CCCCN)NC(=O)[C@H](CCCCN)NC(=O)[C@@H]3CSSC[C@@H](C(=O)N[C@H](C(=O)N4CCC[C@H]4C(=O)N[C@@H](CCCCN)C(=O)O)[C@@H](C)O)NC(=O)[C@H](Cc4c[nH]cn4)NC(=O)[C@H](CSSC[C@H](NC(=O)[C@H](CCC(N)=O)NC(=O)[C@H](CCCNC(=N)N)NC(=O)[C@H](CO)NC1=O)C(=O)N[C@@H](CC(C)C)C(=O)N[C@@H](CCC(=O)O)C(=O)N1CCC[C@H]1C(=O)N3)NC(=O)[C@H](CCCCN)NC(=O)CNC(=O)[C@H](CC(N)=O)NC(=O)[C@H](CCSC)NC2=O` [V6R] (H-GVIINRKCKISRQCLEPCKKAGMRFGKCMNGKCHCTPK-OH; disulfide 8-28, 14-33, 18-35): 0.00865 nM and 2.4 pM.
The matching figures for `CC[C@H](C)[C@@H]1NC(=O)[C@H](CCCCN)NC(=O)[C@@H](NC(=O)[C@H](CCCCN)NC(=O)[C@@H](NC(=O)[C@H](CC(N)=O)NC(=O)[C@@H](NC(=O)[C@@H](NC(=O)[C@@H](NC(=O)CN)C(C)C)[C@@H](C)CC)[C@@H](C)CC)C(C)C)CSSC[C@@H]2NC(=O)[C@H](CCCCN)NC(=O)CNC(=O)[C@H](Cc3ccccc3)NC(=O)[C@H](CCCNC(=N)N)NC(=O)[C@H](Cc3cccc4ccccc34)NC(=O)CNC(=O)[C@H](C)NC(=O)[C@H](CCCCN)NC(=O)[C@H](CCCCN)NC(=O)[C@@H]3CSSC[C@@H](C(=O)N[C@H](C(=O)N4CCC[C@H]4C(=O)N[C@@H](CCCCN)C(=O)O)[C@@H](C)O)NC(=O)[C@H](Cc4c[nH]cn4)NC(=O)[C@H](CSSC[C@H](NC(=O)[C@H](CCC(N)=O)NC(=O)[C@H](CCCNC(=N)N)NC(=O)[C@H](CO)NC1=O)C(=O)N[C@@H](CC(C)C)C(=O)N[C@@H](CCC(=O)O)C(=O)N1CCC[C@H]1C(=O)N3)NC(=O)[C@H](CCCCN)NC(=O)CNC(=O)[C@H](CC(N)=O)NC(=O)[C@H](CCSC)NC2=O` [M23Nal] (H-GVIINVKCKISRQCLEPCKKAG[1Nal]RFGKCMNGKCHCTPK-OH; disulfide 8-28, 14-33, 18-35): 0.036 nM and 64.4 pM.
The matching figures for `CC[C@H](C)[C@@H]1NC(=O)[C@H](CCCCN)NC(=O)[C@@H](NC(=O)[C@H](CCCCN)NC(=O)[C@@H](NC(=O)[C@H](CC(N)=O)NC(=O)[C@@H](NC(=O)[C@@H](NC(=O)[C@H](Cc2cccc3ccccc23)NC(=O)CN)[C@@H](C)CC)[C@@H](C)CC)C(C)C)CSSC[C@@H]2NC(=O)[C@H](CCCCN)NC(=O)CNC(=O)[C@H](Cc3ccccc3)NC(=O)[C@H](CCCNC(=N)N)NC(=O)[C@H](CCSC)NC(=O)CNC(=O)[C@H](C)NC(=O)[C@H](CCCCN)NC(=O)[C@H](CCCCN)NC(=O)[C@@H]3CSSC[C@@H](C(=O)N[C@H](C(=O)N4CCC[C@H]4C(=O)N[C@@H](CCCCN)C(=O)O)[C@@H](C)O)NC(=O)[C@H](Cc4c[nH]cn4)NC(=O)[C@H](CSSC[C@H](NC(=O)[C@H](CCC(N)=O)NC(=O)[C@H](CCCNC(=N)N)NC(=O)[C@H](CO)NC1=O)C(=O)N[C@@H](CC(C)C)C(=O)N[C@@H](CCC(=O)O)C(=O)N1CCC[C@H]1C(=O)N3)NC(=O)[C@H](CCCCN)NC(=O)CNC(=O)[C@H](CC(N)=O)NC(=O)[C@H](CCSC)NC2=O` [V2Nal] (H-G[1Nal]IINVKCKISRQCLEPCKKAGMRFGKCMNGKCHCTPK-OH; disulfide 8-28, 14-33, 18-35): 0.0116 nM and 2.46 pM.
`CC[C@H](C)[C@@H]1NC(=O)[C@H](CCCCN)NC(=O)[C@@H](NC(=O)[C@H](CCCCN)NC(=O)[C@@H](NC(=O)[C@H](CC(N)=O)NC(=O)[C@@H](NC(=O)[C@@H](NC(=O)[C@@H](NC(=O)CN)C(C)C)[C@@H](C)CC)[C@@H](C)CC)C(C)C)CSSC[C@@H]2NC(=O)[C@H](CCCCN)NC(=O)CNC(=O)[C@H](Cc3ccccc3)NC(=O)[C@H](CCCNC(=N)N)NC(=O)[C@H](CCSC)NC(=O)CNC(=O)[C@H](C)NC(=O)[C@H](CCCCN)NC(=O)[C@H](CCCCN)NC(=O)[C@@H]3CSSC[C@@H](C(=O)N[C@H](C(=O)N4CCC[C@H]4C(=O)N[C@@H](CCCCN)C(=O)O)[C@@H](C)O)NC(=O)[C@H](Cc4c[nH]cn4)NC(=O)[C@H](CSSC[C@H](NC(=O)[C@H](Cc4cccc5ccccc45)NC(=O)[C@H](CCCNC(=N)N)NC(=O)[C@H](CO)NC1=O)C(=O)N[C@@H](CC(C)C)C(=O)N[C@@H](CCC(=O)O)C(=O)N1CCC[C@H]1C(=O)N3)NC(=O)[C@H](CCCCN)NC(=O)CNC(=O)[C@H](CC(N)=O)NC(=O)[C@H](CCSC)NC2=O` [Q13Nal] (H-GVIINVKCKISR[1Nal]CLEPCKKAGMRFGKCMNGKCHCTPK-OH; disulfide 8-28, 14-33, 18-35): the IC50 in test [1] was 0.0134 nM; in test [2] it was less than 1.52 pM.

These data come from US7803769B2 (priority 2006, dated 2010).
